Measured values: patent US20160058787A1 (priority 2014, published 2016)

Conditions: in vivo

sodium polystyrene sulfonate [NSPS]
reduction of the toxicity and adverse effects of SPS: over 100 folds
